Results taken from patent US20070203215A1, “Methods & Compositions For Enhancing Pharmaceutical Treatments” (Taiji Biomedical, Inc., priority 1999, published 2007).
Like-named read-outs stand apart in the source and are kept apart here.

Columns and labels:
[1] = mouse, in vivo
Procedure: Non-tumor bearing athymic mice were treated with the compound of Formula 2 and (or) paclitaxel as described.

[2] = test system: MDA/LCC6^MDR1 tumors; assay: In vivo antitumor efficacy, orthotopic MDA/LCC6^MDR1 tumors; parameters: species or system SCID/RAG2 mice
Procedure: Anti-tumor efficacy experiments with orthotopic MDA/LCC6 and MDA/LCC6^MDR1 tumors were conducted in female SCID/RAG2 mice. Ascites propagated cells (2×10^6 in 50 μl) were injected into mammary fat pads bilaterally on day 0 before randomization into groups of 5 mice per group. Paclitaxel (12 mg/kg/dose) was administered QD i.v. (tail vein) in 200 μl saline/Cremophor/ethanol (8/1/1 by volume) on days 5, 12, 19, and 26. The compound of Formula 2-free base (30 mg/kg/dose) was administered BID p.o. by gavage in 100 μl PEG 400/Tween 20 (9/1 by volume) on days 4-6, 11-13, 18-20, and 25-27. Mean body weights were recorded at least every other day. Tumor weight was monitored approximately every other day by caliper measurements and calculated according to the formula (Tumor weight =(length×width^2)÷2). This conversion formula was verified by comparing the calculation derived tumor weights to excised and weighed tumors. Animals bearing ulcerated tumors or where tumor weight exceeded 10% of the animal's body weight were terminated. The weights of the bilateral tumors were averaged for each mouse and mean tumor weights for each treatment group±standard error of the mean were calculated. Statistical analysis was carried out by Mann-Whitney test using GraphPad Prism software (San Diego, Calif.).
The compound of Formula 2 was administered the afternoon before, 2 hours before and 6 hours after each paclitaxel dose. The ability of orally administered Formula 2 compound to reverse MDR in solid tumors in vivo was assessed with the MDA/LCC6^MDR1 model. Because the compound of Formula 2 produced no effect on paditaxel blood levels, focus on up-front therapy (for naive animals) or minimal residual disease models was maintained, as opposed to established tumors. MDA/LCC6^MDR1 cells that express P-gp were resistant to paclitaxel treatment in vitro and this resistance was reversed by the compound of Formula 2 (FIG. 1). […] Similar results were obtained in three independent experiments with two different strains of immunocompromised mice (SCID/RAG-2 and athymic). […]

[3] = test system: MDA/LCC6^MDR1; assay: Reversal of MDR in P-gp-expressing cell line; format: cell-based, human; details: for EC50: Homo sapiens, MDA/LCC6^MDR1 breast
Procedure: Cell proliferation IC50s and MDR reversal EC50s were determined from 3-day dose-response curves carried out in triplicate in 96-well plates essentially as described by Monks et al. (J. Natl. Cancer Inst., 83:757-66, 1991). Cells were plated in standard growth medium at 2.5 or 5.0×10^4 per well (CCRF-CEM and CEM/VLB1000 respectively) or 5×10^3 per well (all other cell lines) in a final volume of 100 μl. After a 2 h incubation for non-adherent cells and overnight incubation for adherent cells, the initial cell density was determined by fluorescence readout of Alamar Blue metabolism. The compound of Formula 2, cytotoxic agents, or compound vehicles were added to duplicate plates and the incubation was continued for an additional 72 h. Final cell density was determined with Alamar Blue. In some experiments, a standard endpoint assay was used without analysis of initial cell density with Alamar Blue. Similar results were obtained with the two assays. EC50s were derived by nonlinear regression analysis assuming a sigmoidal dose-response using GraphPad Prism Software (San Diego, Calif.). Proliferation assays capable of measuring both cytostatic and cytotoxic responses were carried out as described herein with 15 non-transformed and transformed cell lines, including primary fibroblasts, non-transformed smooth muscle, leukemia, breast, colon, ovarian and uterine carcinoma cells (±P-gp expression). Although the compound of Formula 2 reversed P-gp-mediated MDR in the low nanomolar concentration range, the compound was non-cytotoxic by itself at doses up to 100 μM in all cell lines. […] IC50s for non-specific cytotoxicity were similar in matched cell lines plus and minus P-gp expression. […] If it were, some consistent degree of resistance would be expected in P-gp expressing cells.

[4] = test system: P-gp-expressing Cell Lines; assay: Modulation of P-gp-mediated drug resistance in vitro (panel statements); format: cell-based, human
Procedure: The compound of Formula 2 was able to reverse resistance to all classes of P-gp substrates in a wide variety of tumor cell types with EC50s in the low nM range (Table 2). Similar results were obtained with etoposide in several models. Complete reversal of MDR was typically seen with Formula 2 doses between 0.25 and 1.0 μM. Examples with cells expressing extremely high levels of P-gp as a result of drug selection (CEM/VLB1000), moderate levels of P-gp from gene transduction (MDA/LCC6 ^MDR1), and low (intrinsic) levels of P-gp (HCT-15) are illustrated in Table 2. The compound of Formula 2 had no effect on doxorubicin or paclitaxel IC50s in non-P-gp-expressing CCRF-CEM and MDA/LCC6 cells, respectively (FIG. 1, for MDA/LCC6 cells).
Cell proliferation IC50s and MDR reversal EC50s were determined from 3-day dose-response curves carried out in triplicate in 96-well plates essentially as described by Monks et al. (J. Natl. Cancer Inst., 83:757-66, 1991). Cells were plated in standard growth medium at 2.5 or 5.0×10^4 per well (CCRF-CEM and CEM/VLB1000 respectively) or 5×10^3 per well (all other cell lines) in a final volume of 100 μl. After a 2 h incubation for non-adherent cells and overnight incubation for adherent cells, the initial cell density was determined by fluorescence readout of Alamar Blue metabolism. […] Final cell density was determined with Alamar Blue. […]

[5] = PK interaction study, i.v. plasma paclitaxel levels; format: in vivo, SCID/RAG2 mice; details: three oral doses of 30 mg/kg before i.v. 16 mg/kg paclitaxel, FIG. 5
Procedure: At the indicated times after paclitaxel administration, 3 mice per time point were anesthetized with CO2 and blood was removed by cardiac puncture into Microtainer tubes containing EDTA. Plasma samples generated by centrifugation were extracted with acetonitrile and the analysis for paclitaxel content was carried out by HPLC using a Waters 600E multisolvent delivery system, 717 plus autosampler and 996 photodiode array detector. Baccatin III (0.8 nmoles/200 μl plasma) was used as the internal standard (IS) and added to plasma samples during extraction with acetonitrile. Standard curve samples as well as quality control samples were also prepared from spiked control plasma in order to verify the accuracy of the HPLC analysis. […] Waters, Milford, Mass.) with double distilled water (A), and acetonitrile (B), using the following gradient profile: t=0 min, 10% B; t=5 min, 10% B; t=30 min, 65% B; t=40 min, 65% B; t=45 min, 10% B; t=50 min, 10% B. The gradient was formed using a high pressure mixer and the flow rate was 1.0 ml min^−1. A Waters 996 Photo Diode Array Detector was used to scan at multiple wavelengths and chromatograms were processed for traces obtained at 230 nm.

[6] = Blood-brain barrier penetration of loperamide, mouse hot-plate test; format: in vivo, mice
Source text: These increases were dose dependent with respect to loperamide.

[7] = Saquinavir in rat cerebrospinal fluid and brain after oral ONT-093 or vehicle; format: in vivo, Sprague Dawley rats; details: Group 3: after OC-144-093 20 mg/kg p.o.; 30 min after saquinavir dose; individual animals 3001-3004; 20 mg/kg
Procedure: Blood samples (ca 0.3 mL) were collected from 8 selected rats by jugular venipuncture during slight anesthesia pre-dose and at 0.25, 0.5, 1, 2, 4 and 8 post-dose (saquinavir dose). Cerebrospinal fluid (CSF) and brain tissue were collected terminally from the remaining 8 rats at ca 30 min following administration of the dose of saquinavir. Blood samples were collected into tubes containing EDTA and placed on wet ice pending centrifugation. Plasma, CSF and brain tissue samples were stored at ca −80° C. until analysis of saquinavir by LC/MS. The vehicle used was polyethylene glycol (PEG-400)1 Tween 20 (9:1; v:v).
A total of 16 male Sprague Dawley rats were received from Charles River Canada (Saint-Constant, Quebec). Animals were approximately 9 weeks of age at arrival and weighed ca 312-340 g. Four males were randomly assigned to each of Groups 1, 2, 3 and 4. On the day of dosing and following an overnight fast, animals were weighed (ca 305-323 g) and were administered their respective combination of doses. Animals of Groups 1 and 3 received a single oral dose of ONT-093 (20 mg/kg) by gavage at a dose volume of 2 mL/kg. Animals of Groups 2 and 4 received a single oral dose of the vehicle by gavage at a dose volume of 2 mL/kg. Approximately 30 min following administration of either ONT-093 or the vehicle, all animals received a single oral dose of saquinavir (20 mg/kg) by gavage at a dose volume of 1 mL/kg.
Following administration of saquinavir, blood samples (ca 0.3 mL in EDTA) were obtained from all rats of Groups 1 and 2 by jugular venipuncture during anesthesia with isoflurane (Ohmeda Pharmaceutical Products) at each of the following time-points: pre-dose (prior to administration of ONT-093 or vehicle) and 0.25, 0.5, 1, 2, 4 and 8 hr post-dose. Following administration of saquinavir, CSF was obtained from all animals of Groups 3 and 4 at 30 min following dose administration. CSF was collected (in tubes containing no anticoagulant) from the cistema magna during anesthesia with isoflurane. Following CSF collection, the animals were sacrificed by exsanguination via puncture of the vena cava and the brain was harvested from all these rats. Immediately following collection, all samples (blood, CSF and brain) were placed on ice until further processing or storage. Blood samples were centrifuged (ca 3080 g at ca 4° C. for 10 min) and the resulting plasma samples were stored at ca −80° C. pending analysis. CSF samples and brains were stored at ca −80° C. pending analysis.
Plasma samples, CSF samples and brains were analyzed for unchanged saquinavir using an LC/MS assay. Pharmacokinetic analysis was performed on plasma concentrations using the PhAST Software Program, Version 2.2-00 (Phoenix International Life Sciences Inc.). The highest observable concentration was assumed to be the peak concentration (Cmax); Time to Cmax was denoted Tmax. The area under the plasma concentration versus time-curve from time zero to the last measurable concentration [AUC(tf] was calculated by the linear trapezoidal method. Where applicable, numerical values were subjected to calculation of group means and % CV. Student-T-test with Satterthwaite approximation was performed on AUC and Cmax values to compare ONT-093 treated animals versus vehicle treated animals using SAS software program, Version 6.12 (SAS Institute Inc., Gary, N.C.). Where values were below limit of quantification, zero was used for pharmacokinetic analysis. The bioavailability (F) of saquinavir when administered with ONT-093 was calculated relative to the AUC values obtained from the animals receiving saquinavir following administration of the vehicle.

[8] = test system: tumor-bearing mice; details: 20 mg/kg paclitaxel with the compound of Formula 2

SMILES: CCOC/C=C/c1ccc(-c2nc(-c3ccc(NC(C)C)cc3)c(-c3ccc(NC(C)C)cc3)[nH]2)cc1 [Formula 2 compound]
- Effect on paclitaxel toxicity [1]: decreased paclitaxel toxicity
- In vivo tumor growth ([2]; Formula 2 compound and paclitaxel combined, persisted at least two weeks after last paclitaxel dose): statistically significant inhibition of tumor growth
- In vivo tumor growth compared to the vehicle control ([2]; single agent alone, paclitaxel 12 mg/kg i.v., Formula 2 free base 30 mg/kg p.o.): no significant effect
- Resistance to paclitaxel treatment in vitro ([3]; FIG. 1): reversed
- EC50 ([3]; read-out: Formula 2 compound EC50, reversal of Doxorubicin resistance): 13 nM
- EC50 ([3]; read-out: Formula 2 compound EC50, reversal of Paclitaxel resistance): 9 nM
- MDR reversal potency after incubation in human plasma ([4]; human plasma): retained full MDR reversal potency
- EC50s for reversal of resistance to all classes of P-gp substrates ([4]; wide variety of tumor cell types): low nM range
- Effect on i.v. plasma paclitaxel levels [5]: no effect
- Effect on hot-plate escape time ([6]; co-administration with loperamide, either 20 mg or 40 mg, dose dependent with respect to loperamide): significant increases
- Mean time to escape the hot-plate ([6]; in the absence of loperamide): 20 s
- Saquinavir Concentration in CSF [7]: BLQ
- Tumor formation [8]: completely prevented tumor formation at several injection sites
